Measurements published in US9550782B2, “Compounds and methods for treating diabetes” (Medivation Technologies, Inc., priority 2011, dated 2017).
Like-named read-outs stand apart in the source and are kept apart here.

Tests used:
[1] = biological target: T1, rat adrenergic α1B receptor (Rattus norvegicus, UniProt P15823); assay: Radioligand binding, adrenergic α1B ([3H]Prazosin); design: species or system Wistar Rat; conditions: for Percentage inhibition of ligand binding, Adrenergic α1B (0.1 μM): repeat datapoints each shown
T1 construct: rat adrenergic α1B receptor obtained from Wistar Rat liver; from tissue; host or cells: Wistar rat liver
T1 sequence (P15823 1-515): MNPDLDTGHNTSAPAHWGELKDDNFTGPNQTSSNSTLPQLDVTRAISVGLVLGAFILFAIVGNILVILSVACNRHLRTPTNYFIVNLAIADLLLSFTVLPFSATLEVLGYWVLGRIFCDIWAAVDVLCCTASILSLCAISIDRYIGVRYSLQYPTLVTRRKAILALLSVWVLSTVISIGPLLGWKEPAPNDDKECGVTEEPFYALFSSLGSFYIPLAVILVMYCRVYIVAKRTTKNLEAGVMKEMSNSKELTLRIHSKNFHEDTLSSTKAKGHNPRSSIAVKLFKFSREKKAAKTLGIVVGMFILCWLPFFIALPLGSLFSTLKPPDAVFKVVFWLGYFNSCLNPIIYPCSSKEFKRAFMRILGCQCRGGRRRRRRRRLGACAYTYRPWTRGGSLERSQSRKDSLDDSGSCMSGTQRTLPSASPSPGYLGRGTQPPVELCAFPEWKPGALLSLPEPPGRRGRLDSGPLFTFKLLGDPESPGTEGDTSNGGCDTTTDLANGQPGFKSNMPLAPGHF
How it was run: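 Specific binding, taken as total minus that remaining with 10 μM phentolamine, is measured after filtration and counting. Rat liver receptor preparation and 0.25 nM [3H]prazosin are incubated with compound in 50 mM Tris-HCl (pH 7.4, 0.5 mM EDTA) at 25° C for 60 min. Activity is reported as percent inhibition.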

[2] = biological target: T2, human recombinant adrenergic α2A receptor (Homo sapiens, UniProt P08913); assay: Radioligand binding, adrenergic α2A ([3H]MK-912); conditions: [3H]MK-912
T2 construct: expressed in transfected cells; host or cells: insect Sf9 cells
T2 sequence (P08913 1-465): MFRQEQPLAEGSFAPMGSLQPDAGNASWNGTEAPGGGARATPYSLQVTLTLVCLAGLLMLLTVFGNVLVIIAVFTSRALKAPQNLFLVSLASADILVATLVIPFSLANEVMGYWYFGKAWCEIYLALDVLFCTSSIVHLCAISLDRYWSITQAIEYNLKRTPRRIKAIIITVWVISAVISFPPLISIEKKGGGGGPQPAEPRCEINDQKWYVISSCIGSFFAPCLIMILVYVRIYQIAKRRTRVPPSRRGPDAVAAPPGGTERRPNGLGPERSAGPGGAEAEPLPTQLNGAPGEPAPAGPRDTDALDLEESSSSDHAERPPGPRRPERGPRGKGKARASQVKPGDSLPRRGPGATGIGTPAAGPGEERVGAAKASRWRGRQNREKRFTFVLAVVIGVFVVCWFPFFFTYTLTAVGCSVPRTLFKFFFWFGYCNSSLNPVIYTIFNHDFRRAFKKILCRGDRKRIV
How it was run: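 Receptor expressed in Sf9 cells, in 50 mM Tris-HCl pH 7.4, 12.5 mM MgCl2, 2 mM EDTA; compounds incubated with 1 nM [3H]MK-912 for 60 min at 25 °C.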

[3] = biological target: T3, human recombinant adrenergic α2B receptor (Homo sapiens, UniProt P18089); assay: Radioligand binding, adrenergic α2B ([3H]Rauwolscine); conditions: for Percentage inhibition of ligand binding, Adrenergic α2B (0.1 μM): repeat datapoints each shown
T3 construct: expressed in transfected cells; host or cells: CHO-K1
T3 sequence (P18089 1-450): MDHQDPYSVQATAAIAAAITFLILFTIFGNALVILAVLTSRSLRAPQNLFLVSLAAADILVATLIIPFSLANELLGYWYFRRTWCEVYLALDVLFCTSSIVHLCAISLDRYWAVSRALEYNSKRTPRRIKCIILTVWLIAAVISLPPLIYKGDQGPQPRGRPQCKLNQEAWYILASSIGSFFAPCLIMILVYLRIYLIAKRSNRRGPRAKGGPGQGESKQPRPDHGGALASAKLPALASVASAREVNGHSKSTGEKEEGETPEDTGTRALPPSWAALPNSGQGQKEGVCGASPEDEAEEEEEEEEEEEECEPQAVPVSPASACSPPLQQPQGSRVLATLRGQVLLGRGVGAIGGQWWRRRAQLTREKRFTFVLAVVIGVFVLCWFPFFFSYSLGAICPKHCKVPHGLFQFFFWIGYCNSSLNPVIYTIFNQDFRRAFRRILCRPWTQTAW
How it was run: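 Readout: percent inhibition of specific [3H]Rauwolscine binding, measured by filtration and counting. Conditions: CHO-K1 cell-expressed receptor, 2.5 nM radioligand, 60 min, 25° C, Tris-HCl pH 7.4 buffer with MgCl2, EDTA, BSA. Non-specific binding: 10 μM Prazosin.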

[4] = biological target: T4, human recombinant adrenergic α1D receptor (Homo sapiens, UniProt P25100); assay: Radioligand binding, adrenergic α1D ([3H]Prazosin); conditions: for Percentage inhibition of ligand binding, Adrenergic α1D (0.1 μM): repeat datapoints each shown
T4 construct: expressed in transfected cells; host or cells: HEK-293
T4 sequence (P25100 1-572): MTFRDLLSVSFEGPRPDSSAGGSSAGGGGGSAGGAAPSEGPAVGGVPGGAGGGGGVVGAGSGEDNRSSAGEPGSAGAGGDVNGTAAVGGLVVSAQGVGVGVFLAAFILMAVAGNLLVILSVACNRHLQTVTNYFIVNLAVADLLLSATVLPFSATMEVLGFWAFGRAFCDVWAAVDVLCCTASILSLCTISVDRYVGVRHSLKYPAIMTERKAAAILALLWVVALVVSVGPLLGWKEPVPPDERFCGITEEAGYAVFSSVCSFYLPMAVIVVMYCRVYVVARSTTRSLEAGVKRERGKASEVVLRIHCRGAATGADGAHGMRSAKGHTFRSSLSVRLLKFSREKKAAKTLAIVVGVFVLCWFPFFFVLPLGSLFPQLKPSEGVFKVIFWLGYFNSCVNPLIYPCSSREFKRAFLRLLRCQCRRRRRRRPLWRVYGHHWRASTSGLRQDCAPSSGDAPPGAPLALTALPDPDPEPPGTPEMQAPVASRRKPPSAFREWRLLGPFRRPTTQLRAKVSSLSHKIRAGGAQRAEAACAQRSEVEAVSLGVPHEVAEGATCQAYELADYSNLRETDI
Protocol: Compounds were incubated with 0.6 nM [^3H]Prazosin for 60 min at 25° C. Non-specific binding was estimated in the presence of 10 μM phentolamine. Receptor proteins were filtered and washed, the filters were then counted to determine [^3H]Prazosin specifically bound. […] Biochemical assay results are presented as the percent inhibition of specific binding in Table B1.

[5] = compound at 0.1 μM, repeat datapoints each shown

CCCCC(O)(Cn1c2c(c3cc(Cl)ccc31)CN(C)CC2)c1ccc(F)cc1 (single isomer, unassigned) [33b]
Percentage inhibition of ligand binding, Adrenergic α1B (0.1 μM) ([1]; compound at 0.1 μM, 0.1 µM): 0%
Percentage inhibition of ligand binding, Adrenergic α2A (0.1 μM) [2, 5]: −7%
Percentage inhibition of ligand binding, Adrenergic α2B (0.1 μM) ([3]; compound at 0.1 μM, 0.1 µM): 2%
Percentage inhibition of ligand binding, Adrenergic α1D (0.1 μM) ([4]; compound at 0.1 μM, 0.1 µM): 14%

CCC(O)(Cn1c2c(c3cc(C)ccc31)CN(C)CC2)c1ccc(F)cc1 (single isomer, unassigned) [34b]
Percentage inhibition of ligand binding, Adrenergic α1B (0.1 μM) ([1]; compound at 0.1 μM, 0.1 µM): −2%
Percentage inhibition of ligand binding, Adrenergic α2A (0.1 μM) ([2]; compound at 0.1 μM, repeat datapoints each shown, 0.1 µM): 3%
Percentage inhibition of ligand binding, Adrenergic α2B (0.1 μM) ([3]; compound at 0.1 μM, 0.1 µM): 1%
Percentage inhibition of ligand binding, Adrenergic α1D (0.1 μM) ([4]; compound at 0.1 μM, 0.1 µM): 13%

CC(Cn1c2c(c3ccccc31)CN(C)CC2)c1ccc(F)cc1 (single isomer, unassigned) [272a]
Percentage inhibition of ligand binding, Adrenergic α1B ([1]; compound at 0.1 μM, 0.1 µM): 27%
Percentage inhibition of ligand binding, Adrenergic α2A ([2]; compound at 0.1 μM, 0.1 µM): 33%
Percentage inhibition of ligand binding, Adrenergic α2B ([3]; compound at 0.1 μM): −10%
Percentage inhibition of ligand binding, Adrenergic α1D ([4]; compound at 0.1 μM, 0.1 µM): 12%

Cc1ccc2c(c1)c1c(n2CC(C)c2ccc(C)nc2)CCN(C)C1 (single isomer, unassigned) [289b]
Percentage inhibition of ligand binding, Adrenergic α1B ([1]; compound at 0.1 μM, 0.1 µM): 12%
Percentage inhibition of ligand binding, Adrenergic α2A ([2]; compound at 0.1 μM, 0.1 µM): 53%
Percentage inhibition of ligand binding, Adrenergic α2B ([3]; compound at 0.1 μM): 54%
Percentage inhibition of ligand binding, Adrenergic α1D ([4]; compound at 0.1 μM, 0.1 µM): −2%

CCC(O)(Cn1c2c(c3cc(C)ccc31)CN(C)CC2)c1ccncc1 (stereo not shown) [35a]
Percentage inhibition of ligand binding, Adrenergic α1B (0.1 μM) ([1]; compound at 0.1 μM): 9%
Percentage inhibition of ligand binding, Adrenergic α2A (0.1 μM) [2, 5]: 20%
Percentage inhibition of ligand binding, Adrenergic α2B (0.1 μM) ([3]; compound at 0.1 μM): 62%
Percentage inhibition of ligand binding, Adrenergic α1D (0.1 μM) ([4]; compound at 0.1 μM): 6%

CCC(O)(Cn1c2c(c3cc(C)ccc31)CN(C)CC2)c1ccc(F)cc1 (stereo not shown) [compound 34]
inhibition at 0.1 µM ([1]; read-out: Percentage inhibition of ligand binding, Adrenergic α1B (0.1 μM), compound at 0.1 μM, repeat datapoints each shown): 30%
inhibition at 0.1 µM ([2]; read-out: Percentage inhibition of ligand binding, Adrenergic α2A (0.1 μM), compound at 0.1 μM, repeat datapoints each shown): 28%
inhibition at 0.1 µM ([3]; read-out: Percentage inhibition of ligand binding, Adrenergic α2B (0.1 μM), compound at 0.1 μM, repeat datapoints each shown): 38%
inhibition at 0.1 µM ([4]; read-out: Percentage inhibition of ligand binding, Adrenergic α1D (0.1 μM), compound at 0.1 μM, repeat datapoints each shown): 2%

Cc1ccc2c(c1)c1c(n2CCc2sccc2C)CCN(C)C1 [compound 308]
inhibition at 0.1 µM ([1]; compound at 0.1 μM, read-out: Percentage inhibition of ligand binding, Adrenergic α1B): 79%
inhibition at 0.1 µM ([2]; compound at 0.1 μM, read-out: Percentage inhibition of ligand binding, Adrenergic α2A): 86%
inhibition at 0.1 µM ([3]; compound at 0.1 μM, read-out: Percentage inhibition of ligand binding, Adrenergic α2B): 97%
inhibition at 0.1 µM ([4]; compound at 0.1 μM, read-out: Percentage inhibition of ligand binding, Adrenergic α1D): 56%
